In patent US20150245611A1, “ACTIVE INGREDIENT FOR CONTROLLING TRUE SPIDER MITES” (BAYER CROPSCIENCE AG, priority 2014, published 2015):

Key:
Type in all cases: in vivo
[1] = test system: Polyphagotarsonemus latus; assay: Polyphagotarsonemus latus test; outdoor spray treatment (HEMTLA) on aubergine plants; details: S. melongena, 100 g of ai/ha, Dat 16
Description: (§1) To produce an appropriate active ingredient formulation, 1 part by weight of active ingredient is mixed with the stated amounts of water to the desired concentration. Added to the spray liquor is 0.1% a.i. Crovol.
Three aubergine plants (Solanum melongena) infested by all stages of the broad mite (Polyphagotarsonemus latus) are sprayed with an active ingredient formulation of each desired concentration. A spray application with a water application rate of 500 l/Ha is conducted in each case.
(§2) After the desired time, the remaining mites per leaf are counted and calculated as the efficacy by the Abbott formula: […]

[2] = test system: Polyphagotarsonemus latus; assay: Polyphagotarsonemus latus test; outdoor spray treatment (HEMTLA) on bean plants; details: Ph. vulgaris, three sprays at 7-day intervals
Description: as §1
Three bean plants (Phaseolus vulgaris) infested by all stages of the broad mite (Polyphagotarsonemus latus) are sprayed with an active ingredient formulation of each desired concentration. Each plant is treated three times at 7-day intervals with a spray application with a water application rate of 200 l/Ha. The juncture of treatment of the plants with the first spray application X corresponds to the start point of the evaluation (Dat=0) (Dat=days after treatment). The further treatments were effected after 7 days (spray application Y), the third treatment after 14 days (spray application Z).
as §2

[3] = test system: Polyphagotarsonemus latus; assay: Polyphagotarsonemus latus test; outdoor spray treatment (HEMTLA) on chilli plants; details: C. frutescens
Description: as §1
Three chilli plants (Capsicum frutescens) infested by all stages of the broad mite (Polyphagotarsonemus latus) are sprayed with an active ingredient formulation of each desired concentration. A spray application with a water application rate of 458 l/Ha is conducted in each case.
as §2

Tetranychus urticae [4] = assay: Tetranychus urticae test; outdoor spray treatment (TETRUR) on aubergine plants; details: S. melongena
Description: as §1
Three aubergine plants (Solanum melongena) infested by all stages of the red spider mite (Tetranychus urticae) are sprayed with an active ingredient formulation of each desired concentration. One spray application is conducted in each case.
as §2

Tetranychus urticae [5] = assay: Tetranychus urticae test; outdoor spray treatment (TETRUR) on cotton plants; details: G. hirsutum
Description: as §1
Three cotton plants (Gossypium hirsutum) infested by all stages of the red spider mite (Tetranychus urticae) are sprayed with an active ingredient formulation of each desired concentration. One spray application is conducted in each case.
After the desired time, the remaining mites per leaf are counted and calculated as the efficacy by the Abbott formula:
[formula] • B=treated plots • K=untreated control plots

[6] = test system: Polyphagotarsonemus latus; assay: Polyphagotarsonemus latus test; outdoor spray treatment (HEMTLA) on bell pepper plants; details: Capsicum annuum, 100 g of ai/ha
Description: as §1
Three bell pepper plants (Capsicum annuum) infested by all stages of the broad mite (Polyphagotarsonemus latus) are sprayed with an active ingredient formulation of each desired concentration. A spray application with a water application rate of 500 l/Ha is conducted in each case.
as §2

[7] = 75 g of ai/ha (+Crovol 0.1%), Dat 7
[8] = 100 g of ai/ha (+Crovol 0.1%), Dat 21
[9] = 100 g of ai/ha (+Crovol 0.1%), Dat 7
[10] = 100 g of ai/ha (+Crovol 0.1%), Dat 14

Cn1nc(C(F)(F)C(F)(F)F)c(C(F)(F)F)c1C(=O)Nc1ccc(Cl)c(C(=O)NCc2ccccc2)c1 [Compound (I)]
Efficacy (% Abbott) [1]: 100 % Abbott | Efficacy (% Abbott) ([2]; 75 g of ai/ha (+Crovol 0.1%), Dat 3): 72 % Abbott | Efficacy (% Abbott) [2, 7]: 80.7 % Abbott | Efficacy (% Abbott) ([2]; 75 g of ai/ha (+Crovol 0.1%), Dat 14 (Y)): 81.2 % Abbott | Efficacy (% Abbott) ([2]; 75 g of ai/ha (+Crovol 0.1%), Dat 21 (Z)): 79.2 % Abbott | Efficacy (% Abbott) ([2]; 75 g of ai/ha (+Crovol 0.1%), Dat 28): 49.7 % Abbott | Efficacy (% Abbott) ([2]; 100 g of ai/ha (+Crovol 0.1%), Dat 3): 81.4 % Abbott | Efficacy (% Abbott) ([2]; 100 g of ai/ha (+Crovol 0.1%), Dat 7 (Y)): 91.5 % Abbott | Efficacy (% Abbott) ([2]; 100 g of ai/ha (+Crovol 0.1%), Dat 14 (Z)): 90 % Abbott | Efficacy (% Abbott) [2, 8]: 91.9 % Abbott | Efficacy (% Abbott) ([2]; 100 g of ai/ha (+Crovol 0.1%), Dat 28): 52.7 % Abbott | Efficacy (% Abbott) [3, 7]: 63 % Abbott | Efficacy (% Abbott) ([3]; 75 g of ai/ha (+Crovol 0.1%), Dat 14): 67 % Abbott | Efficacy (% Abbott) ([3]; 75 g of ai/ha (+Crovol 0.1%), Dat 21): 50 % Abbott | Efficacy (% Abbott) [3, 9]: 75 % Abbott | Efficacy (% Abbott) [3, 10]: 75 % Abbott | Efficacy (% Abbott) [3, 8]: 83 % Abbott | Efficacy (% Abbott) (Tetranychus urticae [4]; 100 g of ai/ha (+Crovol 0.1%), Dat 5): 99 % Abbott | Efficacy (% Abbott) (Tetranychus urticae [4]; [9]): 100 % Abbott | Efficacy (% Abbott) (Tetranychus urticae [4]; [10]): 100 % Abbott | Efficacy (% Abbott) (Tetranychus urticae [4]; [8]): 99 % Abbott | Efficacy (% Abbott) (Tetranychus urticae [4]; 100 g of ai/ha (+Crovol 0.1%), Dat 29): 99 % Abbott | Efficacy (% Abbott) (Tetranychus urticae [5]; 100 g of ai/ha (+Crovol 0.1%), Dat 4): 100 % Abbott | Efficacy (% Abbott) (Tetranychus urticae [5]; 100 g of ai/ha (+Crovol 0.1%), Dat 6): 100 % Abbott | Efficacy (% Abbott) ([6]; Dat 3): 100 % Abbott | Efficacy (% Abbott) ([6]; Dat 7): 99.8 % Abbott | Efficacy (% Abbott) ([6]; Dat 15): 95.9 % Abbott | Efficacy (% Abbott) ([6]; Dat 21): 85.5 % Abbott

Cc1nn(C)c(/C(OC(=O)C(C)(C)C)=C(\C#N)c2ccc(C(C)(C)C)cc2)c1C [Cyenopyrafen, reference compound]
Efficacy (% Abbott) ([2]; 150 g of ai/ha, Dat 3): 83.7 % Abbott | Efficacy (% Abbott) ([2]; 150 g of ai/ha, Dat 7 (Y)): 63.8 % Abbott | Efficacy (% Abbott) ([2]; 150 g of ai/ha, Dat 14 (Z)): 48.5 % Abbott | Efficacy (% Abbott) ([2]; 150 g of ai/ha, Dat 21): 58.1 % Abbott | Efficacy (% Abbott) ([2]; 150 g of ai/ha, Dat 28): 0 % Abbott | Efficacy (% Abbott) ([3]; 150 g of ai/ha, Dat 7): 28 % Abbott | Efficacy (% Abbott) ([3]; 150 g of ai/ha, Dat 14): 45 % Abbott | Efficacy (% Abbott) ([3]; 150 g of ai/ha, Dat 21): 0 % Abbott | Efficacy (% Abbott) (Tetranychus urticae [5]; 150 g of ai/ha, Dat 4): 98 % Abbott | Efficacy (% Abbott) (Tetranychus urticae [5]; 150 g of ai/ha, Dat 6): 99 % Abbott

CC(C)(C)c1ccc(CCOc2ncnc3ccccc23)cc1 [Fenazaquin, reference compound]
Efficacy (% Abbott) [1]: 97.9 % Abbott | Efficacy (% Abbott) ([6]; Dat 3): 92.3 % Abbott | Efficacy (% Abbott) ([6]; Dat 7): 96 % Abbott | Efficacy (% Abbott) ([6]; Dat 15): 77.4 % Abbott | Efficacy (% Abbott) ([6]; Dat 21): 33.5 % Abbott

CCC(C)(C)C(=O)OC1=C(c2ccc(Cl)cc2Cl)C(=O)OC12CCCCC2 [Spirodiclofen, reference compound]
Efficacy (% Abbott) (Tetranychus urticae [4]; 48 g of ai/ha, Dat 5): 63 % Abbott | Efficacy (% Abbott) (Tetranychus urticae [4]; 48 g of ai/ha, Dat 7): 89 % Abbott | Efficacy (% Abbott) (Tetranychus urticae [4]; 48 g of ai/ha, Dat 14): 97.5 % Abbott | Efficacy (% Abbott) (Tetranychus urticae [4]; 48 g of ai/ha, Dat 21): 95 % Abbott | Efficacy (% Abbott) (Tetranychus urticae [4]; 48 g of ai/ha, Dat 29): 80 % Abbott
